One data set deals with bacteria. In words: Thigh and/or septicaemia mouse model of infection, with meropenem. Format: in vivo. As to conditions: NMRI mice; single dose with meropenem subcutaneous 1 h after inoculation; endpoint 3 h after treatment initiation. The protocol: Female NMRI mice (5-6 weeks old, 26-30 gram, n=5) were rendered neutropenic via intraperitoneal injection of two doses of cyclophosphamide on day 4 and day 1 before infection. The animals were infected via intramuscular injection of an inoculum containing 10^6 CFU/mL of bacteria in the left thigh. The animals were treated with a single dose of meropenem subcutaneous +/− inhibitor 1 h after inoculation, and animals were either euthanised at the start of treatment or at the study endpoint at 3 h after treatment initiation. Clinical scores were monitored at 1 and 4 hours post inoculation and were in all cases mild or moderate. Thighs were aseptically removed from the animals, homogenised, diluted, and plated for incubation. Bacterial counting was performed after 18-22 h of incubation at 35° C. in ambient air.
Immunocompetent female NMRI mice mice (5-6 weeks old, 26-30 gram, n=5) were inoculated intraperitoneally with 0.5 ml inoculum containing 5×10^5 CFU suspended in 5% porcine mucin.
The animals were treated with a single dose of meropenem subcutaneous+/−metallo-b-lactamase inhibitor intravenous 1 h after inoculation. Animals were either euthanised at the start of treatment or at the study endpoint at 3 h after treatment initiation. Clinical scores were monitored at 1 and 4 hours post inoculation and were in all cases mild or moderate. Mice were anaesthetised anesthetized with a buprenorphine/tiletamine/zolazepam cocktail and bled, then euthanized and the peritoneum flushed with 2 ml sterile 0.9% NaCl and collected. The blood and/or peritoneal flush were serially diluted and plated for incubation. Bacterial counting was performed after 18-22 h of incubation at 35° C. in ambient air.

The next data set deals with VIM-1 (Pseudomonas aeruginosa, UniProt A0A0F7KYQ8). The data set is described as follows: MBL inhibition, FC-5 fluorescence assay, VIM-1. Format: biochemical. As to conditions: FC-5 cephalosporin substrate, ranges of obtained pIC50, read-out: pIC50 VIM-1 (converted). Put shortly: (§1)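 Enzyme activity was followed as the initial rate of fluorescence increase (λex 380, λem 460 nm) as FC-5 was cleaved and released its fluorophore. Values come from variable-slope fits of normalized response against log inhibitor concentration.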

Data set [1] can be described thus: Metabolic stability in mouse hepatocytes. Type of data set: in vitro ADME. As to conditions: cryopreserved mouse hepatocytes, 1 μM compound, 37° C., up to 90 min, read-out: Metabolic stability in hepatocytes, in vitro t1/2, Mouse. An outline of the steps: (§2)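 Cryopreserved hepatocytes at 1.0×10^6 cells/ml in Williams medium E were incubated with 1 μM compound (final) at 37° C. Samples at 0, 5, 15, 30, 60 and 90 min were quenched with MeCN containing warfarin internal standard and analysed by LC-MS/MS.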

In the next data set the target is NDM-1 (Klebsiella pneumoniae, UniProt C7C422). In words: MBL inhibition, FC-5 fluorescence assay, NDM-1. Format: biochemical. As to conditions: FC-5 cephalosporin substrate, fluorescence; ranges of obtained pIC50; read-out: pIC50 NDM-1 (converted). Put shortly: as §1
Chain of NDM-1 (C7C422 29-270, looked up, species assumed): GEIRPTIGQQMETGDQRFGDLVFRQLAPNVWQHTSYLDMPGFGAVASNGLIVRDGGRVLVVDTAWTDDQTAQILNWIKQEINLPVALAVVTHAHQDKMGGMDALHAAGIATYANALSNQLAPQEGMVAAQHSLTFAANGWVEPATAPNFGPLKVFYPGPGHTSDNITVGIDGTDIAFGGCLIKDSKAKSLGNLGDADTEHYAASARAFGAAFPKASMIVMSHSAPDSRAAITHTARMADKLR
The nature of data set [2]: Plasma protein binding, equilibrium dialysis, mouse plasma. Type of data set: in vitro ADME. As to conditions: pH 7.4, equilibrium dialysis (RED) 4 hours at 37° C., read-out: Plasma protein binding, fu, Mouse. Put shortly:
(§3)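 Compound at 10 μM in plasma dialysed against 67 mM phosphate buffer pH 7.4 for 4 h at 37° C. in RED device; unbound fraction from buffer and plasma levels by LC-MS/MS. Plasma stability checked in parallel over 4 h at 37° C. versus frozen control.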

Another data set concerns the target IMP-1 (Serratia marcescens, UniProt P52699). The data set is described as follows: MBL inhibition, FC-5 fluorescence assay, IMP-1. Type of data set: biochemical. The following applies: FC-5 cephalosporin substrate, fluorescence; ranges of obtained pIC50; read-out: pIC50 IMP-1 (converted). Put shortly:
as §1

Data set [3] in a line: Plasma protein binding, equilibrium dialysis, human plasma. Type of data set: in vitro ADME. The following applies: pH 7.4, equilibrium dialysis (RED) 4 hours at 37° C., read-out: Plasma protein binding, fu, Human. Put shortly: as §3
The next data set addresses VIM-2 (Escherichia coli, UniProt Q5U7L7). In words: MBL inhibition, FC-5 fluorescence assay, VIM-2. As to conditions: FC-5 cephalosporin substrate, ranges of obtained pIC50, read-out: pIC50 VIM-2 (converted). Type of data set: biochemical. Put shortly: as §1
A short description of data set [4]: Metabolic stability in human hepatocytes. Format: in vitro ADME. As to conditions: cryopreserved human hepatocytes, 1 μM compound, 37° C., up to 90 min, read-out: Metabolic stability in hepatocytes, in vitro t1/2, Human. Put shortly:
as §2

The next data set has as its system Escherichia coli NDM-1. The data set is described as follows: Antibiotic susceptibility testing (MIC), EC NDM-1. Type of data set: cell-based. The following applies: agar or broth dilution (CLSI/EUCAST). The protocol:
(§4) Antibiotic susceptibility testing was performed using the agar or broth dilution method, in line with the Clinical and Laboratory Standards Institute (CLSI) and European Committee on Antimicrobial Susceptibility Testing (EUCAST) requirements.

Data set [5] relates to Acinetobacter baumannii NDM-1. The data set is described as follows: Antibiotic susceptibility testing (MIC), AB NDM-1. As to conditions: agar or broth dilution (CLSI/EUCAST). Format: cell-based. The method, then:
as §4

A further data set has as its system Escherichia coli NDM-7. The data set is described as follows: Antibiotic susceptibility testing (MIC), EC NDM-7. Format: cell-based. The following applies: agar or broth dilution (CLSI/EUCAST). The protocol:
as §4

The values that follow come from patent publication US20240246913A1, “2-CARBOXYL-INDOLE INHIBITORS OF METALLO-BETA-LACTAMASES” (Oxford University Innovation Limited, priority 2021, published 2024).

Chain of IMP-1 (P52699 19-246, looked up, species assumed): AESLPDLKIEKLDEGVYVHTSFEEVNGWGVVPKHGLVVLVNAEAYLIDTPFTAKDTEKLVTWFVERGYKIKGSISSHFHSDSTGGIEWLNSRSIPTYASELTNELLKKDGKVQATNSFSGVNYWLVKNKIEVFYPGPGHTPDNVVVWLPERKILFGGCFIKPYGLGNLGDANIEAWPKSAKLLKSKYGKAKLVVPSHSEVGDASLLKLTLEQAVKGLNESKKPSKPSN

On to `CC(NC(=O)c1ccc(CN)cc1)c1cccc2c(-c3ccc(CN4CCOCC4)nc3)c(C(=O)O)[nH]c12` (stereo not drawn) [IC-11, 7-(1-((4-(Aminomethyl)benzoyl)amino)ethyl)-3-(6-(morpholin-4-ylmethyl)pyridin-3-yl)-1H-indole-2-carboxylic acid], for which, in the data set on bacteria, the “Dose required to reduce minim 1 log fold CFU in a thigh and or a sepsis animal model” value is “B (B = 30-10 mg/kg)”. Moreover, the IC50 was greater than 10 nM on VIM-1, less than 0.1 nM on NDM-1, greater than 10 nM at IMP-1 and 1 to 10 nM at VIM-2. For the same molecule, the half-life at 1 μM in data set [1] and in [4] was greater than 6.67 h in each case. Moreover, the fraction unbound at 4 h, 10 μM in data set [2] is 0.005 to 0.05; in data set [3] it was greater than 0.25.

Take `C[C@@H](c1cccc2c(-c3ccc(NS(C)(=O)=O)c(F)c3)c(C(=O)O)[nH]c12)N1C[C@]2(C[C@@H](CN)C2)OC1=O` [IC-14, 7-((S)-1-((2S,4r)-2-(Aminomethyl)-6-oxo-5-oxa-7-azaspiro[3.4]octan-7-yl)ethyl)-3-(3-fluoro-4-(methylsulfonamido)phenyl)-1H-indole-2-carboxylic acid]: the “Dose required to reduce minim 1 log fold CFU in a thigh and or a sepsis animal model” value in the data set on bacteria is listed as “C (C = 5-10 mg/kg)”. Further, the IC50 on VIM-1 was 0.1 to 1 nM; at NDM-1, less than 0.1 nM; on IMP-1, greater than 10 nM; on VIM-2, 0.1 to 1 nM. Besides, in the data set on Escherichia coli NDM-1, the “MIC values EC NDM-1” value was “A (A = MIC values ≤ 1)”. The half-life at 1 μM was 2.5 to 6.67 h in [1] and greater than 6.67 h in data set [4]. The fraction unbound at 4 h, 10 μM in [2] and in data set [3] was 0.05 to 0.25 each time. The “MIC values AB NDM-1” value in data set [5] was “B (B MIC values 2 ÷ 8)”. Moreover, the “MIC values EC NDM-7” value with Escherichia coli NDM-7 is given as “A (A = MIC values ≤ 1)”.

Consider `COc1cc(-c2c(C(=O)O)[nH]c3c([C@H](C)N4C[C@]5(C[C@@H](CN)C5)OC4=O)cccc23)ccn1` [IC-17, 7-((1S)-1-(2-(aminomethyl)-6-oxo-5-oxa-7-azaspiro[3.4]octan-7-yl)ethyl)-3-(2-methoxypyridin-4-yl)-1H-indole-2-carboxylic acid], for which the “Dose required to reduce minim 1 log fold CFU in a thigh and or a sepsis animal model” value with bacteria is reported as “B (B = 30-10 mg/kg)”. Further, the IC50 is 1 to 10 nM on VIM-1, 0.1 to 1 nM on NDM-1, greater than 10 nM at IMP-1 and less than 0.1 nM on VIM-2. Also, the “MIC values EC NDM-1” value against Escherichia coli NDM-1 is given as “A (A = MIC values ≤ 1)”. The figures for the half-life at 1 μM in [1] and in [4] were 2.5 to 6.67 h and greater than 6.67 h, respectively. Moreover, the fraction unbound at 4 h, 10 μM was 0.005 to 0.05 in data set [2] and 0.05 to 0.25 in data set [3]. For the same molecule, the “MIC values AB NDM-1” value in data set [5] is recorded as “B (B MIC values 2 ÷ 8)”. The “MIC values EC NDM-7” value in the data set with Escherichia coli NDM-7 is given as “A (A = MIC values ≤ 1)”.

Consider `C[C@@H](c1cccc2c(-c3cncc(O)c3)c(C(=O)O)[nH]c12)N1C[C@]2(C[C@@H](CN)C2)OC1=O` [IC-23, 7-((S)-1-((2S,4r)-2-(aminomethyl)-6-oxo-5-oxa-7-azaspiro[3.4]octan-7-yl)ethyl)-3-(5-hydroxypyridin-3-yl)-1H-indole-2-carboxylic acid], for which the “Dose required to reduce minim 1 log fold CFU in a thigh and or a sepsis animal model” value in the data set with bacteria is “C (C = 5-10 mg/kg)”. Besides, the IC50 is 1 to 10 nM at VIM-1, 1 to 10 nM on NDM-1, greater than 10 nM on IMP-1 and 0.1 to 1 nM on VIM-2. Further, in the data set on Escherichia coli NDM-1, the “MIC values EC NDM-1” value is given as “A (A = MIC values ≤ 1)”. Further, the fraction unbound at 4 h, 10 μM was in the range of 0.005 to 0.05 in data set [2] and 0.05 to 0.25 in data set [3]. Moreover, in data set [5], the “MIC values AB NDM-1” value is recorded as “B (B MIC values 2 ÷ 8)”. For the same molecule, in the data set with Escherichia coli NDM-7, the “MIC values EC NDM-7” value was “A (A = MIC values ≤ 1)”.

Take `C[C@@H](c1cccc2c(-c3cc[nH]c(=O)c3)c(C(=O)O)[nH]c12)n1cc(CN2CC(N)C2)oc1=O` [IC-54, 7-[(1S)-1-{5-[(3-Aminoazetidin-1-yl)methyl]-2-oxo-2,3-dihydro-1,3-oxazol-3-yl}ethyl]-3-(2-oxo-1,2-dihydropyridin-4-yl)-1H-indole-2-carboxylic acid]: the “Dose required to reduce minim 1 log fold CFU in a thigh and or a sepsis animal model” value with bacteria is “C (C = 5-10 mg/kg)”. For the same molecule, the IC50 on VIM-1 was greater than 10 nM; at NDM-1, 0.1 to 1 nM; on IMP-1 it was greater than 10 nM; at VIM-2 it was 1 to 10 nM. The “MIC values EC NDM-1” value with Escherichia coli NDM-1 is “A (A = MIC values ≤ 1)”. In addition, the fraction unbound at 4 h, 10 μM in data set [2] and in data set [3] was greater than 0.25 throughout. The “MIC values AB NDM-1” value in data set [5] is recorded as “B (B MIC values 2 ÷ 8)”. Also, the “MIC values EC NDM-7” value with Escherichia coli NDM-7 is on record as “A (A = MIC values ≤ 1)”.

Consider `C[C@H](NC(=O)c1ccc(CN)cc1)c1cccc2c(-c3ccc(CN4CCOCC4)nc3)c(C(=O)O)[nH]c12` [IC-59, 7-((1S)-1-((4-(aminomethyl)benzoyl)amino)ethyl)-3-(6-(morpholin-4-ylmethyl)pyridin-3-yl)-1H-indole-2-carboxylic acid], for which, in the data set with bacteria, the “Dose required to reduce minim 1 log fold CFU in a thigh and or a sepsis animal model” value is listed as “B (B = 30-10 mg/kg)”. The IC50 on VIM-1 was greater than 10 nM; on NDM-1, less than 0.1 nM; at IMP-1, greater than 10 nM; on VIM-2, less than 0.1 nM. Also, the “MIC values EC NDM-1” value against Escherichia coli NDM-1 is recorded as “A (A = MIC values ≤ 1)”. The “MIC values AB NDM-1” value in data set [5] was “A (A = MIC values ≤ 1)”. In the data set with Escherichia coli NDM-7, the “MIC values EC NDM-7” value is “A (A = MIC values ≤ 1)”.

Take `CC(c1cccc2c(-c3ccc(CS(C)(=O)=O)c(F)c3)c(C(=O)O)[nH]c12)n1cc(CNC(=O)CN)oc1=O` (stereo not drawn) [IC-80, 7-(1-(5-((2-Aminoacetamido)methyl)-2-oxooxazol-3(2H)-yl)ethyl)-3-(3-fluoro-4-((methylsulfonyl)methyl)phenyl)-1H-indole-2-carboxylic acid]: the IC50 at VIM-1 was 1 to 10 nM; at NDM-1, 0.1 to 1 nM; at IMP-1, greater than 10 nM; at VIM-2 it was 1 to 10 nM. In addition, in the data set with Escherichia coli NDM-1, the “MIC values EC NDM-1” value is recorded as “A (A = MIC values ≤ 1)”. The half-life at 1 μM was less than 2.5 h in data set [1] and greater than 6.67 h in data set [4]. Also, the fraction unbound at 4 h, 10 μM in [2] was 0.05 to 0.25; in data set [3], greater than 0.25. In addition, the “MIC values AB NDM-1” value in [5] is “B (B MIC values 2 ÷ 8)”. The “MIC values EC NDM-7” value against Escherichia coli NDM-7 is reported as “A (A = MIC values ≤ 1)”.

Consider `CC(C)c1cccc2c(-c3cc(Cl)cc(Cl)c3)c(C(=O)O)[nH]c12` [Prior Art Compound 76, reference compound], for which the “Dose required to reduce minim 1 log fold CFU in a thigh and or a sepsis animal model” value with bacteria is listed as “A (A = >100 mg/kg)”. Moreover, the IC50 on VIM-1 is greater than 10 nM; on NDM-1, 1 to 10 nM; on IMP-1, greater than 10 nM; at VIM-2, 0.1 to 1 nM. For the same molecule, the half-life at 1 μM in data set [1] and in [4] was less than 2.5 h in each case. Besides, the fraction unbound at 4 h, 10 μM in data set [2] and in data set [3] was less than 0.005 in each case.
